Results from patent publication US20190029987A1, “DIMETHYL FUMARATE (DMF) FOR PREVENTION OR TREATMENT OF GOUT, ACNE, DIABETES, VITILIGO AND/OR PYODERMA GANGRENOSUM” (UNIVERSITAT ZURICH, priority 2016, published 2019).

Tests used:
Nrf2 = Nrf2 stabilisation and nuclear accumulation in human primary keratinocytes (Western blot); format: cell-based; conditions: HPKs, 10 μM, FIG. 6E,F; for expression of the other Nrf2 complex proteins Keap1, Cul3, and Rbx1: 1 h; for stabilisation and nuclear accumulation of Nrf2 protein: harvested after 1 h
Experimental: (§1) Human primary keratinocytes (HPKs) constitutively express pro-IL-1β and inflammasome proteins.
(§2) FIG. 6: Bone marrow (BM) cells were isolated from Nrf2-deficient mice and wt litterfnates and differentiated into dendritic cells (DCs). (A, B) After priming with upLPS overnight, BMDCs were treated with the NLRP3 inflammasome activators nigericin (20 μM), zymosan (20 μg/ml), MSU (150 μg/ml), ATP (5 mM) or transfected with poly(dA:dT) (1 μg/ml) for activation of the AIM2 inflammasome. After 6 h, supernatants were analysed for secretion of IL-1β by (A) ELISA or (B) Western blot. Mock-treated but primed BMDCs were analysed for expression of inflammasome proteins and pro-IL-1β at the (C) mRNA level by qRT-PCR or at the (D) protein level by Western blot. (B, D) Duplicates from two individual mice per genotype are shown (biological replicates). (E-G) HPKs were treated with the Nrf2 activators SFN (10 μM), tBHQ (10 μM), DMF (50 μM) and 15d-PGJ2 (10 μM). After 1 h, the cells were harvested and analysed for expression of the indicated proteins using total cell lysates (E) or cytoplasmic and nuclear lysates (F). Western blots for the nuclear protein lamin NC and the cytoplasmic protein α-tubulin served as controls. Specific bands are marked with an asterisk. (G) Total RNA was isolated after 8 h and qRT-PCR was performed for quantification of expression of the Nrf2 target genes glutamate-cysteine ligase, catalytic subunit (GCLC), glutamate-cysteine ligase, modifier subunit (GCLM), and NAD(P)H dehydrogenase, quinone 1 (N001). (A-G) Representative experiments performed at least three times are shown. […] Mann-Whitney test was performed. […] Mann-Whitney test was performed. *P≤0.05

[1] = test system: Nrf2 target genes (GCLC, GCLM, NAD(P)H dehydrogenase, quinone 1); assay: Nrf2 target gene expression in HPKs (qRT-PCR); format: cell-based, human; conditions: 10 μM, RNA after 8 h, FIG. 6G
Experimental: as §1
qRT-PCR was performed with the LightCycler 480 SYBR Green Master or the FastStart Universal SYBR Green Master (both Roche, Rotkreuz, Switzerland) using total cellular RNA. Specific primer pairs (Supplementary Table 2) were designed to generate an approximately 150 bp fragment flanking an intron-exon border of the corresponding gene. The LightCycler 480 96-well version (ROCHE, Rotkreuz, Switzerland) or the ViiA 7 Real-Time FOR System (Life Technologies, Carlsbad, US-CA) was used for reaction and detection according the instructions of the manufacturer.
as §2

NLRP3 inflammasome [2] = assay: UVB irradiation-induced inflammasome activation in HPKs (IL-1β ELISA, Western blot); format: cell-based, human; conditions: for relative efficiency/potency of inflammasome inhibition between compounds: UVB, same concentrations; for relative efficiency/potency of inflammasome inhibition between compounds / inflammasome activation (processed caspase-1, mature IL-1β and -18 in the supernatant): FIG. 2A, 8A-C; for inflammasome activation (processed caspase-1, mature IL-1β and -18 in the supernatant): different doses, UVB 30 min later, harvested after 5 h
From the text: (§3) To determine the effects of Nrf2 activating compounds on inflammasome activation, the inventors treated keratinocytes with different doses of SFN, tBHQ, DMF or 15d-PGJ2 and irradiated the cells with UVB.
(§4) SFN, DMF, 15d-PGJ2, tBHQ, zymosan, ATP, poly(dA:dT), cycloheximide, puromycin, and doxycycline were purchased from Sigma (Munich, Germany), nigericin from Enzo Life Sciences (New York, US-NY), MG132 from Calbiochem (Darmstadt, Germany), and blasticidin from Invivogen (Toulouse, France). Release of IL-1p was determined by ELISA according the instructions of the manufacturer (R&D Systems, Minneapolis, US-MN). MSU crystals were prepared by crystallisation of a supersaturated solution of uric acid under mildly basic conditions. Briefly, uric acid was added to a solution of NaOH, the solution was boiled until the uric acid was dissolved and passed through a filter. NaCl was added and crystallisation was performed at 4° C. Crystals were filtered, then dried using a speedvac, weighted and autoclaved.
(§5) (A) HPKs were treated with the indicated concentrations of the Nrf2 activating compound tBHQ irradiated with UVB 30 min later and harvested after 5 h. ELISA measurements were performed for quantification of IL-1β secretion and Western blots for analysis of expression and activation of the indicated proteins. Specific bands are marked with an asterisk. (B) THP-1 cells were differentiated with PMA (27 nM) for 3 d, primed with upLPS (100 ng/ml) overnight, and 1 h before inflammasome activation (5 μM nigericin, 150 μg/ml MSU) treated with SFN (10 μM), 15-PGJ2 (10 μM) or DMF (50 μM) (15-PG: 15-PGJ2). Cells and supernatants were harvested after 5 h and analysed for inflammasome activation by ELISA measurement of IL-1p and Western blots as indicated. (C) Freshly isolated PBMCs from human blood were primed overnight with upLPS (100 ng/ml) and treated with SFN (10 μM), tBHQ (10 μM), DMF (50 μM) or 15-PGJ2 (10 μM) 1 h before inflammasome activation by nigericin (5 μM). ELISA measurement for secretion of IL-1β as readout for inflammasome activation was performed after 5 h. (D) HPKs or (E) differentiated and primed THP-1 cells were pretreated with cycloheximide (CHX, 30 μg/ml) to block protein synthesis for 1 h before SFN (10 μM) was added to the cells and after an additional hour the inflammasome was activated by (D) irradiation with UVB or (E) treatment with nigericin (5 μM). Cells and supernatants were harvested after (D) 6 h or (E) 3.5 h and analysed for inflammasome activation by Western blot as indicated. (A-E) Representative experiments performed at least three times are shown. Statistics: (A-C) Error bars represent the mean±SD of a representative experiment performed in triplicates. One-way ANOVA was performed. **P≤0.01; ***P≤0.001.
FIG. 8: (A-C) HPKs were treated with the Nrf2 activating compounds (A) SFN, (B) DMF, and (C) 15d-PGJ2, irradiated with UVB 30 min later and harvested after 5 h. Analogous experiment as described in FIG. 2A for tBHQ. (D) THP-1 cells were differentiated with TPA for 3 d and primed with LPS overnight. Then, cells were treated with the solvent DMSO, SFN (10 μM) or 15-PGJ2 (10 μM). After 30 min the inflammasome was activated by nigericin treatment and cells and supernatants were harvested after 2.5 h. Western blots showing prolL-1β and mature IL-1p in the lysate and supernatant. 20% lysate and supernatant of a 12 well was used, respectively, in order to allow a comparison. IL-1β was quantified in the supernatant by ELISA and cytotoxicity by LDH release.

NLRP3 inflammasome [3] = molecular target: T1, NLRP3 inflammasome (Homo sapiens, UniProt Q96P20); assay: Nigericin-induced IL-1β secretion in human PBMCs (ELISA); format: cell-based; conditions: 10 μM 1 h before nigericin (5 μM), 5 h, FIG. 2C
T1 construct: endogenous in cells
From the text: as §3, §4, §5

[4] = test system: Monosodium urate (MSU) crystal-induced peritonitis; conditions: mice, high concentrations injected into the peritoneum; cited from earlier work

T1 sequence (Q96P20 whole entry): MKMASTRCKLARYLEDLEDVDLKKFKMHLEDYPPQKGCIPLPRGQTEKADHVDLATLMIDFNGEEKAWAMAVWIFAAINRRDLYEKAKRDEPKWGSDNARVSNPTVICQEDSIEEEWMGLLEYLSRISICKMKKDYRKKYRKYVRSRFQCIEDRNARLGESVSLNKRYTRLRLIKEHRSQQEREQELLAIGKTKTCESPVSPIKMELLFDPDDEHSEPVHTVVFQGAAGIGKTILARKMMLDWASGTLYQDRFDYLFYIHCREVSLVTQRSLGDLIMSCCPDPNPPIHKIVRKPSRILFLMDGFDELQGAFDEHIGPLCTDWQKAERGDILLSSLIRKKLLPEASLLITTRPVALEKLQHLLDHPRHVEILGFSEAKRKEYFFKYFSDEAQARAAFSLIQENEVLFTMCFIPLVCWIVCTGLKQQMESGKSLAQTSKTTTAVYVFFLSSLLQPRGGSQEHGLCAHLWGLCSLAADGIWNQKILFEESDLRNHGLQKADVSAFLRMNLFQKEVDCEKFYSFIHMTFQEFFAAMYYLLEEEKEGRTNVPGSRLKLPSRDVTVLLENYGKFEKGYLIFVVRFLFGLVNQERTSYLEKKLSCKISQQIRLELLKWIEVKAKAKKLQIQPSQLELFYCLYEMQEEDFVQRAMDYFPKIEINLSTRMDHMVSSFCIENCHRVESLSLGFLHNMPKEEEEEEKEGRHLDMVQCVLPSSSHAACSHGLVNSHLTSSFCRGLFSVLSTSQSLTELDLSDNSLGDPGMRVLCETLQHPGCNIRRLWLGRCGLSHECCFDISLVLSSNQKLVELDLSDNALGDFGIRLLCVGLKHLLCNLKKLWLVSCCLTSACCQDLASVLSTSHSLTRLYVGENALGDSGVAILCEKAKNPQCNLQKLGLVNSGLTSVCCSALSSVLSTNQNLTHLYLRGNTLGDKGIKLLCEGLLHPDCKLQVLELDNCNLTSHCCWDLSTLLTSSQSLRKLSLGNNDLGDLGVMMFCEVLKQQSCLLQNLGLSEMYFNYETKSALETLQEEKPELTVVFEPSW

Row | Structure (SMILES) | expression of the other Nrf2 complex proteins Keap1, Cul3, and Rbx1 (Nrf2) | stabilisation and nuclear accumulation of Nrf2 protein (Nrf2) | expression of classical Nrf2 target genes [1] | relative efficiency/potency of inflammasome inhibition between compounds (NLRP3 inflammasome [2]) | inflammasome activation (processed caspase-1, mature IL-1β and -18 in the supernatant) (NLRP3 inflammasome [2]) | IL-1β secretion (NLRP3 inflammasome [3]) | inflammasome activation and MSU-induced peritonitis [4] | inflammasome inhibition by SFN with protein synthesis blocked by cycloheximide (NLRP3 inflammasome [2]; CHX 30 μg/ml 1 h before SFN 10 μM, UVB 1 h later, 6 h, FIG. 2D)
1 | CCCCCC=CC=C1C(=O)C=CC1CC=CCCCC(=O)O [15d-PGJ2, 15-deoxy-D-prostaglandin J2] | not affected | fast and robust stabilisation and nuclear accumulation of Nrf2 protein | induction of classical Nrf2 target genes | much more efficient than tBHQ and DMF | inhibited inflammasome activation in a dose-dependent manner | inhibited IL-1β secretion | blocked inflammasome activation and reduced MSU-induced peritonitis | 
2 | C[S+]([O-])CCCCN=C=S (stereo not drawn) [SFN, sulforaphane] | not affected | fast and robust stabilisation and nuclear accumulation of Nrf2 protein | induction of classical Nrf2 target genes | much more efficient than tBHQ and DMF | inhibited inflammasome activation in a dose-dependent manner | inhibited IL-1β secretion | blocked inflammasome activation and reduced MSU-induced peritonitis | did not prevent inflammasome inhibition
